In ChEMBL document CHEMBL5154928, “Structure-Aided Design, Synthesis, and Biological Evaluation of Potent and Selective Non-Nucleoside Inhibitors Targeting Protein Arginine Methyltransferase 5” (J Med Chem, 2022):

Tests used:
[1] = Plasma protein binding in rat by LC-MS/MS analysis; assay type: ADME, cell-free; settings: read-out: PPB (converted)
[2] = target: T1, Histone-lysine N-methyltransferase NSD2 (Homo sapiens, UniProt O96028); test: Inhibition of NSD2 (unknown origin) using histone H4 (1 to 21 residues) peptide/SAM as substrate incubated for 210 mins in presence of SAM by AlphaLISA assay
T1 sequence (O96028 whole entry): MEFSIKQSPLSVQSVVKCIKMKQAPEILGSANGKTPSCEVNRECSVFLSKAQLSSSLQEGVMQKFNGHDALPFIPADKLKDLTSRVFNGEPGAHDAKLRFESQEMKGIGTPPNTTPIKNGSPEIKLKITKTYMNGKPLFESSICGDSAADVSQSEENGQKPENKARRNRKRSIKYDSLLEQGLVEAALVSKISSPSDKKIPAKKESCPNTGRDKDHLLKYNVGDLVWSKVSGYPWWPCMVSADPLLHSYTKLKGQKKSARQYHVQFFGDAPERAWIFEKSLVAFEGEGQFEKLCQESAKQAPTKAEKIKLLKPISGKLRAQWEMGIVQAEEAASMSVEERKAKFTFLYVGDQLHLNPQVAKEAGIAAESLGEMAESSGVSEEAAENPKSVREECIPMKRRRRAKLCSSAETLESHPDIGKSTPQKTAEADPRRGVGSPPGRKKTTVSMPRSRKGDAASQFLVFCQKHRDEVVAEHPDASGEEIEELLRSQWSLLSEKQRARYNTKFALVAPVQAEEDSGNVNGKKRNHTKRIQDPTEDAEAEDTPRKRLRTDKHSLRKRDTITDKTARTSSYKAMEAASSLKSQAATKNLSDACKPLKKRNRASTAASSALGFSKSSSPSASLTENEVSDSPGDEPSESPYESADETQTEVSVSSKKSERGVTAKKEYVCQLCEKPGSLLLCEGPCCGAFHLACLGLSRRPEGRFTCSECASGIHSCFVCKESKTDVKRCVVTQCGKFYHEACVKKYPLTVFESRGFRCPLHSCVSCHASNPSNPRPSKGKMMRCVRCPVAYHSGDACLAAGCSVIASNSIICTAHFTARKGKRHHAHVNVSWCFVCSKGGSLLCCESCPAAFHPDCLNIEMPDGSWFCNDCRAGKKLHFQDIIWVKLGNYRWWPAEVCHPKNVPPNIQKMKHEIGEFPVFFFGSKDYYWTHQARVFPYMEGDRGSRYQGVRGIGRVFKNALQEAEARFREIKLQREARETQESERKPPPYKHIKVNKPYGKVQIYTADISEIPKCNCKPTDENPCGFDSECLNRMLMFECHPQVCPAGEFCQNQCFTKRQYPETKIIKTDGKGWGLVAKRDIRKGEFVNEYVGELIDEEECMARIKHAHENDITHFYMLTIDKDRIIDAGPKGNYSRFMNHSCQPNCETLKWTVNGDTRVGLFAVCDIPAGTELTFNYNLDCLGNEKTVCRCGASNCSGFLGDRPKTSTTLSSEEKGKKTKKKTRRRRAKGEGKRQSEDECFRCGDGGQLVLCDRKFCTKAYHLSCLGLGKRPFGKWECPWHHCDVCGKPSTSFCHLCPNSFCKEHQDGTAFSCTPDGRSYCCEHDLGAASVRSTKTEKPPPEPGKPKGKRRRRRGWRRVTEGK

[3] = target: T2, Histone-arginine methyltransferase CARM1 (Homo sapiens, UniProt Q86X55); test: Inhibition of PRMT4 (unknown origin) using histone H4 (1 to 21 residues) peptide/SAM as substrate incubated for 210 mins in presence of SAM by AlphaLISA assay
T2 sequence (Q86X55 whole entry): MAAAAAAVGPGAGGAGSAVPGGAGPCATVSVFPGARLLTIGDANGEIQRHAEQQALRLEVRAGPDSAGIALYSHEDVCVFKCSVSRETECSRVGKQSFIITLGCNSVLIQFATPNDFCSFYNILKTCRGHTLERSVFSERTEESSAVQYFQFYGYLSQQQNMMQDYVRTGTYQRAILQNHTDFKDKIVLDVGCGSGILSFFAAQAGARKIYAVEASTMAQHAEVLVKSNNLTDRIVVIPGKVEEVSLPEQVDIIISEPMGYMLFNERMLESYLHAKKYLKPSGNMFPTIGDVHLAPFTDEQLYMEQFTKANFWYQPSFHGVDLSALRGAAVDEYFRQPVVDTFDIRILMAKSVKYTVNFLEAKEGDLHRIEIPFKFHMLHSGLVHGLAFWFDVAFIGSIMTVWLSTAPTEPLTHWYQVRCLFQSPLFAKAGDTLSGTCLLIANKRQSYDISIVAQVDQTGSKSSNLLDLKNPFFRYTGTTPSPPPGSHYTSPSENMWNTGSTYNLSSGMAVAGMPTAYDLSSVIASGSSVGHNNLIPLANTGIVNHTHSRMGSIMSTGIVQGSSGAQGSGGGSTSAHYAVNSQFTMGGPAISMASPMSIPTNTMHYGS

[4] = AUC (0 to infinity) in Sprague-Dawley rat at 3 mg/kg, iv measured for 0.25 to 24 hrs by LC-MS/MS analysis; assay type: ADME, organism-based; parameters: time 0.25-24 hrs, dose 3 mg/kg, route iv; settings: in vivo
[5] = Plasma protein binding in mouse by LC-MS/MS analysis; assay type: ADME, cell-free; settings: read-out: PPB (converted)
[6] = target: Histone-lysine N-methyltransferase EZH2 (Homo sapiens, UniProt Q15910); test: Inhibition of EZH2 (unknown origin) using peptide substrate preincubated for 10 mins followed by substrate addition for 4 hrs by HTRF assay
Chain of Histone-lysine N-methyltransferase EZH2 (Q15910 whole entry): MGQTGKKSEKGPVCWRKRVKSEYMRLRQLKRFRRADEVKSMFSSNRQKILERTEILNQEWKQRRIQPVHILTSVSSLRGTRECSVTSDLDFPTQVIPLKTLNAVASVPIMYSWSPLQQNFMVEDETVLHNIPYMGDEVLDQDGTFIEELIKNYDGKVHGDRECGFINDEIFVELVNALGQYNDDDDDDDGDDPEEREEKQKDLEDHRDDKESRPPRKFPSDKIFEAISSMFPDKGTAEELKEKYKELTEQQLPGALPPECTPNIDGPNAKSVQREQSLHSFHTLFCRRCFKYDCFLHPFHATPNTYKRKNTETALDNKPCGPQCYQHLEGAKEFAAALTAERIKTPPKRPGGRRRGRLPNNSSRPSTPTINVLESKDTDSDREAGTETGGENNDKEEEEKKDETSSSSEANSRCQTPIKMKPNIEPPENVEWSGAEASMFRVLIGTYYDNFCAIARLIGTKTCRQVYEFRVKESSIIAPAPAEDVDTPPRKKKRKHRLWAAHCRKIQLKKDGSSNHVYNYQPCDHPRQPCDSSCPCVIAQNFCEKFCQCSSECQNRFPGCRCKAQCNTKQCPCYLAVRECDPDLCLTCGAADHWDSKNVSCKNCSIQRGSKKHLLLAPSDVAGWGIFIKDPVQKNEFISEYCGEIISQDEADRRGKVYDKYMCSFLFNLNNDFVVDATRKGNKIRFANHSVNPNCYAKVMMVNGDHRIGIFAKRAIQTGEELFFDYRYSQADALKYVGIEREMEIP

C[C@H](Oc1ccc(-c2cc3c(C4=CCNCC4)ncnc3[nH]2)cc1)c1ccccc1
fraction unbound [1]: 0.014
IC50 [2]: > 20 µM
IC50 [3]: > 20 µM
AUC [4]: 173 h/ng/mL
fraction unbound [5]: 0.003
IC50 [6]: > 20 µM
